Test results from PubChem BioAssay (NCI).
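These data come from cells grown in 96-well plates and exposed to compound for 48 hours at five concentrations. Here, GI50 denotes the concentration required for 50% inhibition of growth. TGI: concentration producing complete growth inhibition.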

What was measured:
Test in all cases: inhibition of tumour cell growth, NCI panel, 48 h
[1] = system: KM12 colon
[2] = system: HS 578T breast
[3] = system: HL-60(TB) leukemia
[4] = system: NCI/ADR-RES ovarian
[5] = system: COLO 205 colon
[6] = system: ACHN renal
[7] = system: SNB-19 CNS
[8] = system: HOP-18 NSCLC
[9] = system: SK-MEL-2 melanoma
[10] = system: SF-539 CNS
[11] = system: EKVX NSCLC
[12] = system: HOP-62 NSCLC
[13] = system: OVCAR-5 ovarian
[14] = system: XF 498 CNS
[15] = system: HOP-92 NSCLC
[16] = system: A498 renal
[17] = system: UACC-257 melanoma
[18] = system: MCF7 breast
[19] = system: U251 CNS
[20] = system: LXFL 529 NSCLC
[21] = system: NCI-H23 lung
[22] = system: RPMI-8226 leukemia
[23] = system: SK-OV-3 ovarian
[24] = system: BT-549 breast
[25] = system: SF-295 CNS
[26] = system: SK-MEL-28 melanoma
[27] = system: CCRF-CEM leukemia
[28] = system: MDA-MB-231 breast
[29] = system: TK-10 renal
[30] = system: IGROV1 ovarian
[31] = system: 786-0 renal
[32] = system: SNB-78 CNS
[33] = system: HCC-2998 colon
[34] = system: MDA-MB-435
[35] = system: CAKI-1 renal
[36] = system: NCI-H226 lung
[37] = system: SNB-75 CNS
[38] = system: M14 melanoma
[39] = system: NCI-H522 lung
[40] = system: MALME-3M melanoma
[41] = system: RXF 393 renal
[42] = system: SR leukemia
[43] = system: OVCAR-3 ovarian
[44] = system: K-562 leukemia
[45] = system: DLD-1 colon
[46] = system: T-47D breast
[47] = system: SK-MEL-5 melanoma
[48] = system: SW-620 colon
[49] = system: UO-31 renal
[50] = system: A549 NSCLC
[51] = system: OVCAR-8 ovarian
[52] = system: HCT-15 colon
[53] = system: PC-3 prostate
[54] = system: NCI-H460 lung
[55] = system: DMS 273 small cell lung
[56] = system: SF-268 CNS
[57] = system: MOLT-4 leukemia
[58] = system: OVCAR-4 ovarian
[59] = system: UACC-62 melanoma
[60] = system: LOX IMVI melanoma
[61] = system: M19-MEL melanoma
[62] = system: SN12C renal
[63] = system: DMS 114 small cell lung
[64] = system: HCT-116 colon

SMILES: N#CC1=C(N)Oc2c(ccc3cccnc23)C1c1ccccc1 (stereo not given)
- TGI [1]: 17.1 µM
- GI50 [2]: 1.73 µM
- TGI [2]: > 100 µM
- TGI [3]: 2.07 µM
- GI50 [4]: 0.464 µM
- TGI [4]: 12.4 µM
- TGI [5]: 13.2 µM
- TGI [6]: > 100 µM
- TGI [7]: > 74.1 µM
- TGI [8]: > 100 µM
- TGI [9]: > 27 µM
- TGI [10]: 4.87 µM
- TGI [11]: > 100 µM
- TGI [12]: > 22.9 µM
- TGI [13]: > 100 µM
- TGI [14]: 77.7 µM
- TGI [15]: > 83.4 µM
- TGI [16]: 16.9 µM
- TGI [17]: > 79.4 µM
- GI50 [18]: 0.406 µM
- TGI [18]: 58.1 µM
- TGI [19]: 36.2 µM
- TGI [20]: > 100 µM
- TGI [21]: > 28.5 µM
- GI50 [22]: 2.37 µM
- TGI [22]: 15.1 µM
- TGI [23]: > 100 µM
- GI50 [24]: 1.73 µM
- TGI [24]: 23.6 µM
- TGI [25]: > 21.9 µM
- TGI [26]: > 75.5 µM
- TGI [27]: 13.4 µM
- GI50 [28]: 4.88 µM
- TGI [28]: > 100 µM
- TGI [29]: 86.8 µM
- TGI [30]: > 100 µM
- TGI [31]: > 100 µM
- TGI [32]: 9.36 µM
- TGI [33]: > 100 µM
- GI50 [34]: 0.193 µM
- TGI [34]: 0.661 µM
- TGI [35]: > 100 µM
- GI50 [36]: 11.4 µM
- TGI [36]: 50.9 µM
- TGI [37]: 3.5 µM
- TGI [38]: > 41.5 µM
- GI50 [39]: 0.299 µM
- TGI [39]: 12.7 µM
- TGI [40]: > 67.5 µM
- TGI [41]: > 30.7 µM
- TGI [42]: 29 µM
- TGI [43]: 2.95 µM
- TGI [44]: > 100 µM
- TGI [45]: > 100 µM
- GI50 [46]: 1.45 µM
- TGI [46]: 65.6 µM
- TGI [47]: 13.9 µM
- TGI [48]: > 100 µM
- TGI [49]: > 100 µM
- TGI [50]: > 100 µM
- TGI [51]: > 100 µM
- TGI [52]: > 100 µM
- GI50 [53]: 2.8 µM
- TGI [53]: > 100 µM
- TGI [54]: > 46.3 µM
- TGI [55]: > 100 µM
- TGI [56]: > 100 µM
- TGI [57]: 36.9 µM
- TGI [58]: 98.9 µM
- TGI [59]: 24.6 µM
- TGI [60]: > 100 µM
- TGI [61]: > 100 µM
- TGI [62]: > 100 µM
- TGI [63]: 7.98 µM
- TGI [64]: 21.3 µM
